Drawing on US7183324B2, “2,3,4-substituted cyclopentanones as therapeutic agents” (Allergan, Inc., priority 2004, dated 2007), this text covers IC50 and EC50 for 16 compounds.

Some results are limits rather than exact numbers.

The target in one assay is T1, HEP4 (Homo sapiens, UniProt P35408).
T1 construct: expressed in transfected cells; host or cells: HEK-293
In words: Radioligand binding, EP4 receptor. Conditions: [3H]PGE2 5 nM, HEK-293 membranes. As to the method:
(§1) HEK-293 cells stably expressing the human or feline FP receptor, or EP1, EP2, or EP4 receptors were washed with TME buffer, scraped from the bottom of the flasks, and homogenized for 30 sec using a Brinkman PT 10/35 polytron. TME buffer was added to achieve a final 40 ml volume in the centrifuge tubes (the composition of TME is 100 mM TRIS base, 20 mM MgCl2, […]; 10N HCl is added to achieve a pH of 7.4).
(§2) The cell homogenate was centrifuged at 19000 r.p.m. for 20 min at 4° C. using a Beckman Ti-60 rotor. The resultant pellet was resuspended in TME buffer to give a final 1 mg/ml protein concentration, as determined by Biorad assay. Radioligand binding competition assays vs. [^3H-]17-phenyl PGF2α (5 nM) were performed in a 100 μl volume for 60 min. Binding reactions were started by adding plasma membrane fraction. The reaction was terminated by the addition of 4 ml ice-cold TRIS-HCl buffer and rapid filtration through glass fiber GF/B filters using a Brandel cell harvester. The filters were washed 3 times with ice-cold buffer and oven dried for one hour. Non-specific binding was determined with 10 uM unlabeled 17-phenyl PGF2α.
(§3) [^3H-] PGE2 (5 nM; specific activity 180 Ci mmol) was used as the radioligand for EP receptors. Binding studies employing EP1, EP2, EP3, EP4 were performed in duplicate in at least three separate experiments. A 200 μl assay volume was used. Incubations were for 60 min at 25° C. and were terminated by the addition of 4 ml of ice-cold 50 mM TRIS-HCl, followed by rapid filtration through Whatman GF/B filters and three additional 4 ml washes in a cell harvester (Brandel). Non-specific binding determined with 10^−5M of unlabeled PGE2.

For the next assay, the target named is T2, hEP4/Gqs5 (Homo sapiens, UniProt P35408).
T2 construct: expressed in transfected cells; host or cells: HEK-293 (EBNA)
In words: FLIPR calcium signal, hEP4/Gqs5. It counts as cell-based. Conditions: HEK-293 (EBNA) cells, read-out: FUNCTIONAL EC50 HEP4. As to the method:
(§4) HEK-293 (EBNA) cells, stably expressing one type or subtype of recombinant human prostaglandin receptors (prostaglandin receptors expressed: hDP/Gqs5; hEP1; hEP2/Gqs5; hEP3A/Gqi5; hEP4/Gqs5; hFP; hIP; hTP), were cultured in 100 mm culture dishes in high-glucose DMEM medium containing 10% fetal bovine serum, 2 mM 1-glutamine, 250 μg/ml geneticin (G418) and 200 μg/ml hygromycin B as selection markers, and 100 units/ml penicillin G, 100 μg/ml streptomycin and 0.25 μg/ml amphotericin B. • (b) Calcium Signal Studies on the FLIPR™
(§5) Cells were seeded at a density of 5×10^4 cells per well in Biocoat® Poly-D-lysine-coated black-wall, clear-bottom 96-well plates (Becton-Dickinson) and allowed to attach overnight in an incubator at 37° C. Cells were then washed two times with HBSS-HEPES buffer (Hanks Balanced Salt Solution without bicarbonate and phenol red, 20 mM HEPES, pH 7.4) using a Denley Cellwash plate washer (Labsystems). After 45 minutes of dye-loading in the dark, using the calcium-sensitive dye Fluo-4 AM at a final concentration of 2 μM, plates were washed four times with HBSS-HEPES buffer to remove excess dye leaving 100 μl in each well. Plates were re-equilibrated to 37° C. for a few minutes.
(§6) Cells were excited with an Argon laser at 488 nm, and emission was measured through a 510–570 nm bandwidth emission filter (FLIPR™, Molecular Devices, Sunnyvale, Calif.). Drug solution was added in a 50 μl volume to each well to give the desired final concentration. The peak increase in fluorescence intensity was recorded for each well. On each plate, four wells each served as negative (HBSS-HEPES buffer) and positive controls (standard agonists: BW245C (hDP); PGE2 (hEP1; hEP2/Gqs5; hEP3A/Gqi5; hEP4/Gqs5); PGF2α (hFP); carbacyclin (hIP); U46619 (hTP), depending on receptor). The peak fluorescence change in each drug-containing well was then expressed relative to the controls.
(§7) Compounds were tested in a high-throughput (HTS) or concentration-response (CoRe) format. In the HTS format, forty-four compounds per plate were examined in duplicates at a concentration of 10^−5 M. To generate concentration-response curves, four compounds per plate were tested in duplicates in a concentration range between 10^−5 and 10^−11 M. The duplicate values were averaged. In either, HTS or CoRe format each compound was tested on at least 3 separate plates using cells from different passages to give an n≧3.

The next assay has as its target T3, HEP3D (Homo sapiens, UniProt P43115).
T3 sequence (P43115 1-374 isoform P43115-4): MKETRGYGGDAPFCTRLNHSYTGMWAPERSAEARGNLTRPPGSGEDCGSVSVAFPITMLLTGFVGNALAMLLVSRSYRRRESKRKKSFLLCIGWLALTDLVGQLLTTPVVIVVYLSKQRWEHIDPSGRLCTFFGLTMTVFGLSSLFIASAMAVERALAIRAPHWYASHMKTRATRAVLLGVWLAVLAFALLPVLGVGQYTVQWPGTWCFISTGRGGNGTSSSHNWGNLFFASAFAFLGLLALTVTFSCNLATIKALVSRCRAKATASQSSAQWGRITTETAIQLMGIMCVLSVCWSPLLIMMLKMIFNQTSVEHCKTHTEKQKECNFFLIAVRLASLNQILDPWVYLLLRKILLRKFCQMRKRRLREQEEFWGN
Kind of assay: Radioligand binding, EP3 receptor. The settings on record: [3H]PGE2 5 nM. As to the method: as §1, §2, §3

The target of a further assay is T4, hEP3A/Gqi5 (Homo sapiens, UniProt P43115).
T4 construct: expressed in transfected cells; host or cells: HEK-293 (EBNA)
T4 sequence (P43115 1-390): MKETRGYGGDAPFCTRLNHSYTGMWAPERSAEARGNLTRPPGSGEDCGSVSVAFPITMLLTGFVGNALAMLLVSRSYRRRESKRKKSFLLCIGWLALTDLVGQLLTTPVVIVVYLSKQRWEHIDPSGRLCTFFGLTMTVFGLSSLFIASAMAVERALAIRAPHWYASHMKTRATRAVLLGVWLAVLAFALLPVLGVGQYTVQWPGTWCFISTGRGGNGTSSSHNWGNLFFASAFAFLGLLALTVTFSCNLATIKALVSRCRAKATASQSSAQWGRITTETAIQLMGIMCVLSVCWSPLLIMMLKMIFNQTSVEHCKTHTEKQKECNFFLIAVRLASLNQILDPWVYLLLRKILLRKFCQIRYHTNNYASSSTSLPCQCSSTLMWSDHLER
In words: FLIPR calcium signal, hEP3A/Gqi5. The settings on record: HEK-293 (EBNA) cells, read-out: FUNCTIONAL EC50 HEP3A. Type of assay: cell-based. As to the method: as §4, §5, §6, §7

What is called IC50 is the concentration at which inhibition is half-maximal. Usually EC50 stands for the concentration at which the effect is half-maximal.

T1 sequence (P35408 whole entry): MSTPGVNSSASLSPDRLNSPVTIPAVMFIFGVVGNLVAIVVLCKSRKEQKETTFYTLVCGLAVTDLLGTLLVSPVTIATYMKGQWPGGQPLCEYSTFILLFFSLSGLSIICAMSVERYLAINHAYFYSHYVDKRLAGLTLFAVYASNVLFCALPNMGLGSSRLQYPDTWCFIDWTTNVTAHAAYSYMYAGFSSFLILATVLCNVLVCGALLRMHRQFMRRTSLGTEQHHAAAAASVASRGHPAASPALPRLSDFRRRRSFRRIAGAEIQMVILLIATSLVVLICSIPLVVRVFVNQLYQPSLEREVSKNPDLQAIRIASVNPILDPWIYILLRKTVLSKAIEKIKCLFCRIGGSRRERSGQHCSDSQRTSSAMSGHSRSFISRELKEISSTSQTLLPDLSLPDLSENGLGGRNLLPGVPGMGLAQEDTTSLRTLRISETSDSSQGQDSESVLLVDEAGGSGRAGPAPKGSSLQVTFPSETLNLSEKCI
T2 sequence (P35408 whole entry): as above

As to `COC(=O)CSCCCS[C@H]1C(=O)CC[C@@H]1/C=C/C(O)CCc1cc2ccccc2s1` (stereo partly drawn) [drawing 27, {3-[(1R,2R)-2-((E)-5-Benzo[b]thiophen-2-yl-3-hydroxy-pent-1-enyl)-5-oxo-cyclopentylsulfanyl]-propylsulfanyl}-acetic acid methyl ester], the IC50 at HEP4 was determined as 0.3 µM. The concentration giving a half-maximal response (EC50) at hEP4/Gqs5 came to 0.0078 µM.

As to `COC(=O)CSCCCS[C@H]1C(=O)CC[C@@H]1/C=C/C(O)Cc1ccccc1` (single isomer, unassigned) [drawing 45], the concentration for half-maximal inhibition (IC50) at HEP4 was found to be 0.141 µM. Further, the 50% effective concentration (EC50) on hEP4/Gqs5 is 0.015 µM.

Consider `O=C(O)CSCCCS[C@H]1C(=O)C[C@@H](CO)[C@@H]1/C=C/C(O)Cc1ccccc1` (single isomer, unassigned) [drawing 50], for which, at HEP4, the IC50 came out at 0.44 µM. For the same compound, at hEP4/Gqs5, the concentration for a half-maximal effect (EC50) worked out at 0.135 µM.

The compound `O=C(O)CSCCCS[C@H]1C(=O)C[C@@H](CO)[C@@H]1/C=C/C(O)CCc1cc2ccccc2s1` (single isomer, unassigned) [drawing 31] showed an IC50 on HEP4 of 1.3 µM. The 50% effective concentration (EC50) at hEP4/Gqs5 stood at 0.363 µM.

At HEP4, `COC(=O)CSCCCS[C@H]1C(=O)C[C@@H](CO)[C@@H]1/C=C/C(O)Cc1ccccc1` (single isomer, unassigned) [drawing 42] showed a half-inhibitory concentration (IC50) of 0.195 µM. Moreover, on hEP4/Gqs5, the 50% effective concentration (EC50) stood at 0.106 µM.

`O=C(O)CSCCCS[C@H]1C(=O)C[C@@H](CO)[C@@H]1/C=C/C(O)CCc1ccc2ccccc2c1` (stereo partly drawn) [drawing 40, {3-[(1R,2S,3R)-3-Hydroxymethyl-2-((E)-3-hydroxy-5-naphthalen-2-yl-pent-1-enyl)-5-oxo-cyclopentylsulfanyl]-propylsulfanyl}-acetic acid]: the 50% inhibitory concentration (IC50) at HEP4 was found to be 1 µM. Also, at hEP4/Gqs5, the concentration for a half-maximal effect (EC50) was 0.465 µM.

For `COC(=O)CSCCCS[C@H]1C(=O)CC[C@@H]1/C=C/C(O)Cc1ccc2ccccc2c1` (stereo partly drawn) [{3-[(1R,2R)-2-((E)-3-Hydroxy-4-naphthalen-2-yl-but-1-enyl)-5-oxo-cyclopentylsulfanyl]-propylsulfanyl}-acetic acid methyl ester], the IC50 at HEP3D was above 10 µM; at HEP4 it was 0.083 µM.

Turning to `COC(=O)CSCCCS[C@H]1C(=O)CC[C@@H]1/C=C/C(C)(O)CCc1ccc2ccccc2c1` (stereo partly drawn) [{3-[(1R,2R)-2-((E)-3-Hydroxy-3-methyl-5-naphthalen-2-yl-pent-1-enyl)-5-oxo-cyclopentylsulfanyl]-propylsulfanyl}-acetic acid methyl ester], the IC50 on HEP4 is 0.5 µM. For the same compound, at hEP4/Gqs5, the concentration for a half-maximal effect (EC50) is 0.046 µM.

On to `COC(=O)CSCCCS[C@H]1C(=O)C[C@@H](CO)[C@@H]1/C=C/C(O)CCc1ccc2ccccc2c1` (single isomer, unassigned) [drawing 38], for which the IC50 on HEP4 worked out at 1.6 µM. Further, the half-maximal effective concentration (EC50) at hEP4/Gqs5 turned out to be 2.34 µM.

Compound `COC(=O)CSCCCS[C@H]1C(=O)CC[C@@H]1/C=C/C(O)CCc1ccc2ccccc2c1` (stereo partly drawn) [drawing 34, {3-[(1R,2R)-2-((E)-3-Hydroxy-5-naphthalen-2-yl-pent-1-enyl)-5-oxo-cyclopentylsulfanyl]-propylsulfanyl}-acetic acid methyl ester] yielded a half-inhibitory concentration (IC50) on HEP4 of 0.3 µM. Also, the half-maximal effective concentration (EC50) on hEP4/Gqs5 worked out at 0.0005 µM.

`COC(=O)CSCCCS[C@H]1C(=O)C[C@@H](CO)[C@@H]1/C=C/C(O)Cc1ccccc1` (single isomer, unassigned) [drawing 43] gave a half-inhibitory concentration (IC50) on HEP4 of 1.05 µM. Also, the EC50 at hEP4/Gqs5 worked out at 2.09 µM.

Regarding `COC(=O)CSCCCS[C@H]1C(=O)C[C@@H](CO)[C@@H]1/C=C/C(O)CCc1cc2ccccc2s1` (stereo partly drawn) [drawing 29, {3-[(1R,2S,3R)-2-((E)-5-Benzo[b]thiophen-2-yl-3-hydroxy-pent-1-enyl)-3-hydroxymethyl-5-oxo-cyclopentylsulfanyl]-propylsulfanyl}-acetic acid methyl ester], the IC50 at HEP4 was found to be 2.1 µM. Besides, the concentration for a half-maximal effect (EC50) at hEP4/Gqs5 was found to be 7.94 µM.

Compound `O=C(O)CSCCCS[C@H]1C(=O)C[C@@H](CO)[C@@H]1/C=C/C(O)CCc1cc2ccccc2s1` (single isomer, unassigned) [drawing 32] yielded an IC50 on HEP4 of 0.1 µM. Besides, the concentration for a half-maximal effect (EC50) on hEP4/Gqs5 worked out at 0.463 µM.

As for `O=C(O)CSCCCS[C@H]1C(=O)CC[C@@H]1/C=C/C(O)Cc1ccccc1` (single isomer, unassigned) [drawing 47], the IC50 at HEP3D was above 10 µM; at HEP4, 0.055 µM. Besides, the EC50 at hEP3A/Gqi5 was above 10 µM; on hEP4/Gqs5, 0.06 µM.

The compound `COC(=O)CSCCCS[C@H]1C(=O)CC[C@@H]1/C=C/C(O)CCc1ccc2ccccc2c1` (stereo partly drawn) [drawing 35, {3-[(1R,2R)-2-((E)-3-Hydroxy-5-naphthalen-2-yl-pent-1-enyl)-5-oxo-cyclopentylsulfanyl]-propylsulfanyl}-acetic acid methyl ester] yielded an IC50 at HEP4 of 0.2 µM. Besides, the EC50 at hEP4/Gqs5 stood at 0.0006 µM.

The compound `COC(=O)CSCCCS[C@H]1C(=O)C[C@@H](CO)[C@@H]1/C=C/C(O)CCc1cc2ccccc2s1` (stereo partly drawn) [drawing 30, {3-[(1R,2S,3R)-2-((E)-5-Benzo[b]thiophen-2-yl-3-hydroxy-pent-1-enyl)-3-hydroxymethyl-5-oxo-cyclopentylsulfanyl]-propylsulfanyl}-acetic acid methyl ester] returned an IC50 at HEP4 of 1.9 µM. At hEP4/Gqs5, the EC50 is above 10 µM.
